Where a name gives a salt, the structure may show the parent alone. Read-outs that look alike come from different tables or passages of the source.
Assays:
NEK4 = biological target: T1, NEK4 (Homo sapiens, UniProt P51957); assay: Kinase selectivity assay (DiscoverX KinomeScreen), NEK4; format: binding; conditions: NEK4, 5 μM; read-out: % Control
T1 construct: purchased DiscoverX
Procedure: (§1) The compound of Example 33 was tested for off-target activity against a panel of fifty five kinases bearing functional or structural similarity to PLK1 at a concentration of 5 μM using the DiscoverX KinomeScreen assay.

WNK3 = biological target: T2, WNK3 (Homo sapiens, UniProt Q9BYP7); assay: Kinase selectivity assay (DiscoverX KinomeScreen), WNK3; format: binding; conditions: WNK3, 5 μM; read-out: % Control
T2 construct: purchased DiscoverX
T2 sequence (Q9BYP7 whole entry): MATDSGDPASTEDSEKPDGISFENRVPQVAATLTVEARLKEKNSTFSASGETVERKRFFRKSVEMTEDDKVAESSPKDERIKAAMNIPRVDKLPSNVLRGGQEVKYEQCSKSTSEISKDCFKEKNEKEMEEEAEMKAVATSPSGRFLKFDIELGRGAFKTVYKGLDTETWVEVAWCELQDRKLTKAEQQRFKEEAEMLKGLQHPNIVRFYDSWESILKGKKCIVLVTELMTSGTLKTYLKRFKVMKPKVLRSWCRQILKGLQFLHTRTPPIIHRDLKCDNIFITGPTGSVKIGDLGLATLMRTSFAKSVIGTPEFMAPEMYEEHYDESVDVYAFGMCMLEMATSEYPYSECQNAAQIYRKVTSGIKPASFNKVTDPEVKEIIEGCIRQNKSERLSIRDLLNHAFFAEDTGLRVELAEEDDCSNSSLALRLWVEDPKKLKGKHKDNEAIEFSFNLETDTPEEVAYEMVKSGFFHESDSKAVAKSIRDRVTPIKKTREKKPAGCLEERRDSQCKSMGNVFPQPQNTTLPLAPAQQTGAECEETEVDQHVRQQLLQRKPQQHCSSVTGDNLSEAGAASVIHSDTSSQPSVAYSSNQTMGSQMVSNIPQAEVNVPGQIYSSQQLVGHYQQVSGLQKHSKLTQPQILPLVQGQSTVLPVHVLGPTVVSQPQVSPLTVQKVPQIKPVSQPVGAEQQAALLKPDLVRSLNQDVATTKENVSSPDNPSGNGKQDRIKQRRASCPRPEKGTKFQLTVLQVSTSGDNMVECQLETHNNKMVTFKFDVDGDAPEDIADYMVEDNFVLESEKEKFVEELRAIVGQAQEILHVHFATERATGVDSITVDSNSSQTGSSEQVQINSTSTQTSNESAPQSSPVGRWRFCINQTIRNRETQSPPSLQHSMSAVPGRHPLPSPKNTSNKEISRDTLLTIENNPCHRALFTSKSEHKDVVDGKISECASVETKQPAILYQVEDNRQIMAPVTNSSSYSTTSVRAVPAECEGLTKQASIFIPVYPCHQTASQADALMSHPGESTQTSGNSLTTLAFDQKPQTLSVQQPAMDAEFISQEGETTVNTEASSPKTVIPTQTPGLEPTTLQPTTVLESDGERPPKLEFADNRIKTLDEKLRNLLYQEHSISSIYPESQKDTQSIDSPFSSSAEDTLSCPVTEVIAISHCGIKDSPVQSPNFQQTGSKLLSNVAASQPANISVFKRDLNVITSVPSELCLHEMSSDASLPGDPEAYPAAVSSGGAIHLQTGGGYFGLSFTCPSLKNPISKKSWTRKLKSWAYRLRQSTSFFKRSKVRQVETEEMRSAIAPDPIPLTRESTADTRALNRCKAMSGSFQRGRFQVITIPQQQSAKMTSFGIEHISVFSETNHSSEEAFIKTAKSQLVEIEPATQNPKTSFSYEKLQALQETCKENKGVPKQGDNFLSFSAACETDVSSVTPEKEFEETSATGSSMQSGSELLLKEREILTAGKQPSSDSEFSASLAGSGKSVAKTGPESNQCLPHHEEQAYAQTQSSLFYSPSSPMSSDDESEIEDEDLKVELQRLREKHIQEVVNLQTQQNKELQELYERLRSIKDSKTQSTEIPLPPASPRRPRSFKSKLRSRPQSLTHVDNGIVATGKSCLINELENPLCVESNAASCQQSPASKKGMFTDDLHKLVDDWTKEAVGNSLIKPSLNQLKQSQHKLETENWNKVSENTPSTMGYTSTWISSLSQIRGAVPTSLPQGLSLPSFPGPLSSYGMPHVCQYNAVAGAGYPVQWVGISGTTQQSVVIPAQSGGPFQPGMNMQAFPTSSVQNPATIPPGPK
Procedure: as §1

EIF2AK1 = biological target: T3, EIF2AK1 (Homo sapiens, UniProt Q9BQI3); assay: Kinase selectivity assay (DiscoverX KinomeScreen), EIF2AK1; format: binding; conditions: EIF2AK1, 5 μM; read-out: % Control
T3 construct: purchased DiscoverX
T3 sequence (Q9BQI3 whole entry): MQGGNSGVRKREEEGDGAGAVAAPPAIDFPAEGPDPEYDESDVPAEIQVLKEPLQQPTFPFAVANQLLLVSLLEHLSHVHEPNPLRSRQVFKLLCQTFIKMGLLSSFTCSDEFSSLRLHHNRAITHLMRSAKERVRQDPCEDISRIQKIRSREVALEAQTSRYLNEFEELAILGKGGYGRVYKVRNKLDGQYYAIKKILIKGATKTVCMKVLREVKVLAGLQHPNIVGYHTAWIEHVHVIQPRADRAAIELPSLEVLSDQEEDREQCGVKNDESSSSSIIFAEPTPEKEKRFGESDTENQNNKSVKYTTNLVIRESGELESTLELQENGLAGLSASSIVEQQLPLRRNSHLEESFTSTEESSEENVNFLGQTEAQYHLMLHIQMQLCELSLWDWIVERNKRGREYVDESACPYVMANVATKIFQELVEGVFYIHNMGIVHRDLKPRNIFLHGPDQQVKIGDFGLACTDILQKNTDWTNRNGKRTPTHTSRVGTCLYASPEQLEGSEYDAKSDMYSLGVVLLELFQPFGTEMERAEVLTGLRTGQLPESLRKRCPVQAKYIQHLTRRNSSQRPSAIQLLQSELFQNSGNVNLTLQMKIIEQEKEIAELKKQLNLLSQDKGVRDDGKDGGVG
Procedure: as §1

[1] = tested on: glioblastoma cell line 909905; assay: Glioblastoma cancer cell viability, cell line 909905; format: cell-based
Procedure: (§2) Assay to Measure the Effects of Compounds of the Invention on Glioblastoma Cancer Cell Viability
(§3) The compound of Example 33 was tested for inhibitory activity against the glioblastoma cell lines in Table 7 below.

ULK3 = biological target: T4, ULK3 (Homo sapiens, UniProt Q6PHR2); assay: Kinase selectivity assay (DiscoverX KinomeScreen), ULK3; format: binding; conditions: ULK3, 5 μM; read-out: % Control
T4 construct: purchased DiscoverX
Procedure: as §1

CHUK = biological target: T5, CHUK (Homo sapiens, UniProt O15111); assay: Kinase selectivity assay (DiscoverX KinomeScreen), CHUK; format: binding; conditions: read-out: % Control
T5 construct: purchased DiscoverX
Procedure: as §1

[2] = Determination of brain exposure following oral dosing in mice; format: in vivo, male CD-1 mice; conditions: male, CD-1, mouse, 10 mg/Kg PO
Procedure: Determination of Brain Exposure Following Oral Dosing in Mice An experiment was carried out on the compound of Example 33 to determine the extent of its brain penetration following oral dosing in mice. The following protocol was used. 15 male CD-1 mice (n=3/time point) were dosed perorally with the compound of Example 33 (10 mg/kg; dose concentration 1 mg/ml; dose volume 10 mL/kg). […] Animals were housed in pre-assigned housing cages until sampling. Appropriate samples were taken at […] time points and stored immediately at −20° C. Homogenisation and protein precipitation with acetonitrile was carried out for plasma and brain. Analysis was carried out with tandem mass spectrometry using electrospray ionisation. The results of the experiment are shown in FIG. 2 and in Table 10 below.

Kinetic solubility = format: physicochemical; conditions: kinetic from dmso stock
cytochrome P450 3A4 = cytochrome P450 3A4 (Homo sapiens, UniProt P08684); assay: Cytochrome P450 inhibition, 3A4; format: in vitro ADME
NEK3 = biological target: T6, NEK3 (Homo sapiens, UniProt P51956); assay: Kinase selectivity assay (DiscoverX KinomeScreen), NEK3; format: binding; conditions: NEK3, 5 μM; read-out: % Control
T6 construct: purchased DiscoverX
Procedure: as §1

[3] = tested on: glioblastoma cell line 906871; assay: Glioblastoma cancer cell viability, cell line 906871; format: cell-based
Procedure: as §2, §3

GAK = biological target: T7, GAK (Homo sapiens, UniProt O14976); assay: Kinase selectivity assay (DiscoverX KinomeScreen), GAK; format: binding; conditions: read-out: % Control
T7 construct: purchased DiscoverX
Procedure: as §1

NEK10 = biological target: T8, NEK10 (Homo sapiens, UniProt Q6ZWH5); assay: Kinase selectivity assay (DiscoverX KinomeScreen), NEK10; format: binding; conditions: NEK10, 5 μM; read-out: % Control
T8 construct: purchased DiscoverX
Procedure: as §1

HCT116 xenograft tumours = assay: In vivo anti-cancer activity in mice bearing HCT116 tumours; conditions: oral 50 mg/kg or 200 m/kg on days 1, 3, 7, 10 and 13, dose of the T/C value not stated
Procedure: In Vivo Anti-Cancer Activity in Mice Bearing HCT116 Tumours
Mice bearing HCT116 xenograft tumours were give oral dosages of either 50 mg/kg or […] on days 1, 3, 7, 10 and 13 and the tumour volumes measured at days 1, 3, 5, 8, 10, 12 and 15. Tumour volumes in a control group of tumour-bearing mice, who had received vehicle only at the same time points were also measured.

wild-type HeLa cell line = assay: Wild-type versus KRAS HeLa cell viability: wild-type KRAS transgene; format: cell-based; conditions: Homo sapiens; HeLa cells expressing wild-type KRAS, 72 hours; read-out: WT GI50
Procedure: Assay to Measure the Effects of Compounds of the Invention on Wild-Type Versus KRAS HeLa Cell Viability
Identifying synthetic lethal interactions between targeted small molecule therapies and characterised oncogenic mutations is a goal of modern oncology drug discovery efforts. To this end, PLK1-PBD inhibitors were tested on HeLa cells engineered to inducibly express wild-type or oncogenic KrasG12V transgenes using the FLP-in/T-Rex system (Invitrogen). Cells were plated, and then treated with or without Doxycycline to induce transgene expression, and then treated with serially-diluted PBD inhibitors. After 72 hours of incubation, cell viability was assessed using the Cell Titre Blue reagent (Promega) and a BMG Pherastar plate reader. The effect of PBD inhibition on cell viability with either wild-type or oncogenic G12V KRAS was assessed using the graphing/curve-fitting packages in GraphPad Prism.

WEE1 = biological target: T9, WEE1 (Homo sapiens, UniProt P30291); assay: Kinase selectivity assay (DiscoverX KinomeScreen), WEE1; format: binding; conditions: WEE1, 5 μM; read-out: % Control
T9 construct: purchased DiscoverX
T9 sequence (P30291 whole entry): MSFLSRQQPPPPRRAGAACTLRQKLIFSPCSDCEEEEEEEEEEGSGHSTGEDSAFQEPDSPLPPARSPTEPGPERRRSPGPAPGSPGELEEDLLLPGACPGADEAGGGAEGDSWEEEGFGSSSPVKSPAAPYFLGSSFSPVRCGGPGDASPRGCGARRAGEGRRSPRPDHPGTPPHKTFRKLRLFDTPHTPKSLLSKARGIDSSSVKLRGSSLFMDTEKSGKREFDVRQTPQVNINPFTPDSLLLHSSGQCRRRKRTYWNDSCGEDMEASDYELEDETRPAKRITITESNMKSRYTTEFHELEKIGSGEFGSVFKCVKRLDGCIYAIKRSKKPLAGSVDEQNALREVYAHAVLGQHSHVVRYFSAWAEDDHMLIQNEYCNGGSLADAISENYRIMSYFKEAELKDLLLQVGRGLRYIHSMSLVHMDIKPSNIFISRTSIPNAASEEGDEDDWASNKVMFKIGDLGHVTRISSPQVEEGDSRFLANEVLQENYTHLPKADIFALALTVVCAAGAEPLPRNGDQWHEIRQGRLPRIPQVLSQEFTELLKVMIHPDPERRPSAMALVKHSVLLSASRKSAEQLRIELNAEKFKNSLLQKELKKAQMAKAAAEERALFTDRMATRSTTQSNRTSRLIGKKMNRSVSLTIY
Procedure: as §1

IKBKE = biological target: T10, IKBKE (Homo sapiens, UniProt Q14164); assay: Kinase selectivity assay (DiscoverX KinomeScreen), IKBKE; format: binding; conditions: read-out: % Control
T10 construct: purchased DiscoverX
T10 sequence (Q14164 whole entry): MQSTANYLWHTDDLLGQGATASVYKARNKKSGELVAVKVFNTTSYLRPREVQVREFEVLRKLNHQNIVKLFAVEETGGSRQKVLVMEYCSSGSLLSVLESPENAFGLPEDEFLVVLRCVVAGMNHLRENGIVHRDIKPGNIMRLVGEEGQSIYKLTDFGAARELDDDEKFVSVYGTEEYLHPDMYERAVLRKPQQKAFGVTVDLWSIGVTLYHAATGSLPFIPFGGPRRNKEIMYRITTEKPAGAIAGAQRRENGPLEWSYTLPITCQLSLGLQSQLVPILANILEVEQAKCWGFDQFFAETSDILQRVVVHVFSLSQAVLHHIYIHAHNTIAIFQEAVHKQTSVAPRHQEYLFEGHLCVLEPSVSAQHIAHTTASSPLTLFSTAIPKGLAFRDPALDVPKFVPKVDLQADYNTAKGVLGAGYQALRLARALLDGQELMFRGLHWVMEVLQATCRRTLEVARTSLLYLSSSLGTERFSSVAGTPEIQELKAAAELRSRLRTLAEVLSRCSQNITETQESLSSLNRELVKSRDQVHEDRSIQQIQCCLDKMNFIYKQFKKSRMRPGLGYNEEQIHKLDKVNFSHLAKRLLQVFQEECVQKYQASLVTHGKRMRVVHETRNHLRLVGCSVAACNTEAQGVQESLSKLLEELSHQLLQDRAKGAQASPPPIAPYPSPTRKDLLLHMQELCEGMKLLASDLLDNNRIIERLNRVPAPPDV
Procedure: as §1

NEK2 = biological target: T11, NEK2 (Homo sapiens, UniProt P51955); assay: Kinase selectivity assay (DiscoverX KinomeScreen), NEK2; format: binding; conditions: NEK2, 5 μM; read-out: % Control
T11 construct: purchased DiscoverX
T11 sequence (P51955 whole entry): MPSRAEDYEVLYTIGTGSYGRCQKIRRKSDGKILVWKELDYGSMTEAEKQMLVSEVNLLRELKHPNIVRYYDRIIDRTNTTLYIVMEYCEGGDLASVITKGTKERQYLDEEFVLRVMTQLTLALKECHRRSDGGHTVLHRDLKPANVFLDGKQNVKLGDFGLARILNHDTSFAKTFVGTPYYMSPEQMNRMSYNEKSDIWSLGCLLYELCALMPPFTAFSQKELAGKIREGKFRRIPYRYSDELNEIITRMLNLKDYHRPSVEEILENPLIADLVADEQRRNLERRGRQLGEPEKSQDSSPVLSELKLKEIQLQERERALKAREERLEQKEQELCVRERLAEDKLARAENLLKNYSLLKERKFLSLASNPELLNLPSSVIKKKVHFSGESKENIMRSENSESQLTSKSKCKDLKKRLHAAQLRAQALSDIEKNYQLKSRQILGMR
Procedure: as §1

[4] = tested on: glioblastoma cell line 908145; assay: Glioblastoma cancer cell viability, cell line 908145; format: cell-based
Procedure: as §2, §3

TLK2 = biological target: T12, TLK2 (Homo sapiens, UniProt Q86UE8); assay: Kinase selectivity assay (DiscoverX KinomeScreen), TLK2; format: binding; conditions: TLK2, 5 μM; read-out: % Control
T12 construct: purchased DiscoverX
Procedure: as §1

cytochrome P450 2D6 = cytochrome P450 2D6 (Homo sapiens, UniProt P10635); assay: Cytochrome P450 inhibition, 2D6; format: in vitro ADME
Chain of cytochrome P450 2D6 (P10635 whole entry): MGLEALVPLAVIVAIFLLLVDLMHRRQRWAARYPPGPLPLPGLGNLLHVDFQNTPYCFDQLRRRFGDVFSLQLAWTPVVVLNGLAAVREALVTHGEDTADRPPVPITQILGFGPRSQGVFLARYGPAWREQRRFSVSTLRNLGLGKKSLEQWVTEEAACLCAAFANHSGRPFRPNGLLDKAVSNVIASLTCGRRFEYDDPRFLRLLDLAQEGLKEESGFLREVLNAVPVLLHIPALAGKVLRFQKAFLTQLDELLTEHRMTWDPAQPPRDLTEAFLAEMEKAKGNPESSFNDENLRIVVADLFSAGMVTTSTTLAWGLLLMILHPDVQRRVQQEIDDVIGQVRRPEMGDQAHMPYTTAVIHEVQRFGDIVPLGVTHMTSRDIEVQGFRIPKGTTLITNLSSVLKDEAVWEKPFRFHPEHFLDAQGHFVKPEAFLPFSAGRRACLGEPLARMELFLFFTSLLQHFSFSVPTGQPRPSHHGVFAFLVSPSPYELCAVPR

CSNK2A1 = biological target: T13, CSNK2A1 (Homo sapiens, UniProt P68400); assay: Kinase selectivity assay (DiscoverX KinomeScreen), CSNK2A1; format: binding; conditions: CSNK2A1, 5 μM; read-out: % Control
T13 construct: purchased DiscoverX
Procedure: as §1

ROCK2 = biological target: T14, ROCK2 (Homo sapiens, UniProt O75116); assay: Kinase selectivity assay (DiscoverX KinomeScreen), ROCK2; format: binding; conditions: ROCK2, 5 μM; read-out: % Control
T14 construct: purchased DiscoverX
Procedure: as §1

NEK9 = biological target: T15, NEK9 (Homo sapiens, UniProt Q8TD19); assay: Kinase selectivity assay (DiscoverX KinomeScreen), NEK9; format: binding; conditions: NEK9, 5 μM; read-out: % Control
T15 construct: purchased DiscoverX
Procedure: as §1

[5] = tested on: glioblastoma cell line 905984; assay: Glioblastoma cancer cell viability, cell line 905984; format: cell-based
Procedure: as §2, §3

[6] = tested on: glioblastoma cell line 946370; assay: Glioblastoma cancer cell viability, cell line 946370; format: cell-based
Procedure: as §2, §3

Structure (SMILES): CN(C)CCNC(=O)c1ccc(-c2ccc(-c3ccc(Cl)cc3)n2-c2ccccc2C(F)(F)F)cc1 [Example 33, 4-[5-(4-chlorophenyl)-1-[2-(trifluoromethyl)phenyl]pyrrol-2-yl]-N-[2-(dimethylamino)ethyl]benzamide Hydrochloride]
- remaining activity at 5 µM (NEK4): 100%
- remaining activity at 5 µM (WNK3): 100%
- remaining activity at 5 µM (EIF2AK1): 98%
- IC50 [1]: 276 nM
- remaining activity at 5 µM (ULK3): 88%
- remaining activity at 5 µM (CHUK): 100%
- AUC(0-t) ([2]; brain, read-out: AUClast (Brain)): 31900 ng·h/mL
- Tmax ([2]; brain, read-out: Tmax (Brain)): 24 h
- AUC(0-t) ([2]; plasma, read-out: AUClast (Plasma)): 5030 ng·h/mL
- Tmax ([2]; plasma, read-out: Tmax (Plasma)): 8 h
- solubility kinetic (Kinetic solubility): 32 µM
- cytochrome P450 inhibition 3A4 (cytochrome P450 3A4): > 10 µM
- remaining activity at 5 µM (NEK3): 74%
- IC50 [3]: 283 nM
- remaining activity at 5 µM (GAK): 100%
- remaining activity at 5 µM (NEK10): 94%
- effect on tumour growth (T/C) (HCT116 xenograft tumours): 48%
- GI50 (wild-type HeLa cell line): 20 nM
- remaining activity at 5 µM (WEE1): 98%
- remaining activity at 5 µM (IKBKE): 75%
- remaining activity at 5 µM (NEK2): 94%
- IC50 [4]: 223 nM
- remaining activity at 5 µM (TLK2): 94%
- cytochrome P450 inhibition 2D6 (cytochrome P450 2D6): > 10 µM
- remaining activity at 5 µM (CSNK2A1): 96%
- remaining activity at 5 µM (ROCK2): 100%
- remaining activity at 5 µM (NEK9): 92%
- IC50 [5]: 241 nM
- IC50 [6]: 1670 nM

Source: US11208405B2, “Pyrrole derivatives as PLK1 inhibitors” (SENTINEL ONCOLOGY LIMITED, priority 2017, dated 2021)
